Experimental data: ChEMBL document CHEMBL5665443, “Enzyme Inhibitor Single Concentration assay results for EUbOPEN Chemogenomics Library” (2024)

Legend:
Conditions in all cases: Hit No
[1] = target: Uracil-DNA glycosylase (Homo sapiens) (UniProt P13051);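 further: UNG excision on a quenched double-stranded DNA oligo probe, with APE1 added for strand incision and turnover, read as fluorescence at 594 nm as strands separate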
Description: Inhibition of UNG by quantifying inhibition of UNG-mediated cleavage and dissociation of quenched duplex DNA oligonucleotides, measured as fluorescence at 594 nm. To generate a functional strand incision and increase turn-over this assay is coupled to APE1.

[2] = target: T1, Endonuclease 8-like 2 (Homo sapiens) (UniProt Q969S2);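 further: fluorescence at 594 nm reports NEIL2 cutting and release of a quenched double-stranded DNA oligo substrate, reduced signal read as inhibition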
T1 sequence (whole entry): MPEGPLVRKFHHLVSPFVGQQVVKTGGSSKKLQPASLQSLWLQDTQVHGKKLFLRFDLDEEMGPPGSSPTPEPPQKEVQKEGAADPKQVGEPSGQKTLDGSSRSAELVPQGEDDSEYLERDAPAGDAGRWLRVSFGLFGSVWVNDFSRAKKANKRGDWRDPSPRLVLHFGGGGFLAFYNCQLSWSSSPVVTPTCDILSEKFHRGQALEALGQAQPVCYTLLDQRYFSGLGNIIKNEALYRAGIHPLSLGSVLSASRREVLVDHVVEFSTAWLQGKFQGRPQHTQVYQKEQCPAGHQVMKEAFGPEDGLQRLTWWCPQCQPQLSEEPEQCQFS
Description: Inhibition of NEIL2 by quantifying inhibition of NEIL2-mediated cleavage and dissociation of quenched duplex DNA oligonucleotides, measured as fluorescence at 594 nm.

[3] = target: Methyl-CpG-binding domain protein 4 (Homo sapiens) (UniProt O95243);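 further: MBD4 activity read as fluorescence at 594 nm from cleavage and release of a quenched duplex DNA oligonucleotide, with APE1 coupled to incise the strand and raise turnover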
Description: Inhibition of MBD4 by quantifying inhibition of MBD4-mediated cleavage and dissociation of quenched duplex DNA oligonucleotides, measured as fluorescence at 594 nm. To generate a functional strand incision and increase turn-over this assay is coupled to APE1.

[4] = target: N-glycosylase/DNA lyase (Homo sapiens) (UniProt O15527);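 further: OGG1 cleavage of a quenched duplex DNA oligonucleotide, coupled to APE1 for strand incision, read as fluorescence at 594 nm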
Description: Inhibition of OGG1 by quantifying inhibition of OGG1-mediated cleavage and dissociation of quenched duplex DNA oligonucleotides, measured as fluorescence at 594 nm. To generate a functional strand incision and increase turn-over this assay is coupled to APE1.

[5] = target: T2, Endonuclease III-like protein 1 (Homo sapiens) (UniProt P78549);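 further: enzyme assay tracking NTHL1 cutting and release of a quenched double-stranded DNA oligo substrate, read as fluorescence at 594 nm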
T2 sequence (whole entry): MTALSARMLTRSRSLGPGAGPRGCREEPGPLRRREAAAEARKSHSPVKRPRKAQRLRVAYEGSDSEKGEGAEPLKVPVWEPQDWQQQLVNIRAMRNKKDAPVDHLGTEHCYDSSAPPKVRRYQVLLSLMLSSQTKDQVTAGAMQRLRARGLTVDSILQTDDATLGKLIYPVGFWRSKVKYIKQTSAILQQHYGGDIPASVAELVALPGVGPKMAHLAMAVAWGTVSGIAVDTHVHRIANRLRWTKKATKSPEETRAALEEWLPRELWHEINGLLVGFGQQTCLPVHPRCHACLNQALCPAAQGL
Description: Inhibition of NTHL1 by quantifying inhibition of NTHL1-mediated cleavage and dissociation of quenched duplex DNA oligonucleotides, measured as fluorescence at 594 nm.

[6] = target: T3, Adenine DNA glycosylase (Homo sapiens) (UniProt Q9UIF7);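 further: human MUTYH activity read as 594 nm fluorescence from cleavage and release of a quenched DNA duplex, coupled with APE1 for strand incision, lower signal meaning inhibition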
T3 sequence (whole entry): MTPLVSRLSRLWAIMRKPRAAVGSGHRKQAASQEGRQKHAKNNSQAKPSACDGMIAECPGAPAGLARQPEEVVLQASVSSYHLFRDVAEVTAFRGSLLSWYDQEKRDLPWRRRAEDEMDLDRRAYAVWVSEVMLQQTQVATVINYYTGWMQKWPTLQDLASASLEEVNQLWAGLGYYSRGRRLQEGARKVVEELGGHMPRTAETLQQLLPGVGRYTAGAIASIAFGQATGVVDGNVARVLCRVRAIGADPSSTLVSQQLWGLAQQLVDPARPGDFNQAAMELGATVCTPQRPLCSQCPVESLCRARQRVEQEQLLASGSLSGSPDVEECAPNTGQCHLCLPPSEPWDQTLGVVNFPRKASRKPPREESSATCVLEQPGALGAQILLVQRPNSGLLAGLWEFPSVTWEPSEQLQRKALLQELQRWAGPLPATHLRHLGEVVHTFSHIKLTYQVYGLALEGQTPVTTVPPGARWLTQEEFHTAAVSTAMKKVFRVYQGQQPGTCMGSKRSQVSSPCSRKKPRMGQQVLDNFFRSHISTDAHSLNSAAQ
Description: Inhibition of MUTYH by quantifying inhibition of MUTYH-mediated cleavage and dissociation of quenched duplex DNA oligonucleotides, measured as fluorescence at 594 nm. To generate a functional strand incision and increase turn-over this assay is coupled to APE1.

[7] = target: G/T mismatch-specific thymine DNA glycosylase (Homo sapiens) (UniProt Q13569);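 further: human TDG cleavage of quenched duplex DNA oligonucleotides coupled to APE1, strand release read as fluorescence at 594 nm, inhibition of TDG activity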
Description: Inhibition of TDG by quantifying inhibition of TDG-mediated cleavage and dissociation of quenched duplex DNA oligonucleotides, measured as fluorescence at 594 nm. To generate a functional strand incision and increase turn-over this assay is coupled to APE1.

[8] = target: T4, Single-strand selective monofunctional uracil DNA glycosylase (Homo sapiens) (UniProt Q53HV7);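 further: enzymatic SMUG1 assay coupled with APE1, reading fluorescence at 594 nm released when a quenched double-stranded DNA oligonucleotide substrate is cleaved and separated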
T4 sequence (whole entry): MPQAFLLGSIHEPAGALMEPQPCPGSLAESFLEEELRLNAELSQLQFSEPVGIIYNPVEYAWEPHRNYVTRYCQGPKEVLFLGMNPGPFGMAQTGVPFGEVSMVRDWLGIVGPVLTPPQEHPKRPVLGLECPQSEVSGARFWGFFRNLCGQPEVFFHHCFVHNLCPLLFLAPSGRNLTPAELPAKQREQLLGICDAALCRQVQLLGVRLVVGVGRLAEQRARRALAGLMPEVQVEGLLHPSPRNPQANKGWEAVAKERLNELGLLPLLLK
Description: Inhibition of SMUG1 by quantifying inhibition of SMUG1-mediated cleavage and dissociation of quenched duplex DNA oligonucleotides, measured as fluorescence at 594 nm. To generate a functional strand incision and increase turn-over this assay is coupled to APE1.

Chain of Uracil-DNA glycosylase (Homo sapiens) (P13051 whole entry): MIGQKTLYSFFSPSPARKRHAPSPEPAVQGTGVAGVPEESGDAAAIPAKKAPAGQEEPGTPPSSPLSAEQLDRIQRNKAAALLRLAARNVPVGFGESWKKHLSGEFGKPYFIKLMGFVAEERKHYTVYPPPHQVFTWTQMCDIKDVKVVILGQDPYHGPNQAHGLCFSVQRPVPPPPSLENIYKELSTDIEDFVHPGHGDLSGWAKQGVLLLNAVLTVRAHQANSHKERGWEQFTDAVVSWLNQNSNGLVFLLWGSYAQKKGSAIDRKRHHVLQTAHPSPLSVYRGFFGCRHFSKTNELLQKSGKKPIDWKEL
Chain of G/T mismatch-specific thymine DNA glycosylase (Homo sapiens) (Q13569 whole entry): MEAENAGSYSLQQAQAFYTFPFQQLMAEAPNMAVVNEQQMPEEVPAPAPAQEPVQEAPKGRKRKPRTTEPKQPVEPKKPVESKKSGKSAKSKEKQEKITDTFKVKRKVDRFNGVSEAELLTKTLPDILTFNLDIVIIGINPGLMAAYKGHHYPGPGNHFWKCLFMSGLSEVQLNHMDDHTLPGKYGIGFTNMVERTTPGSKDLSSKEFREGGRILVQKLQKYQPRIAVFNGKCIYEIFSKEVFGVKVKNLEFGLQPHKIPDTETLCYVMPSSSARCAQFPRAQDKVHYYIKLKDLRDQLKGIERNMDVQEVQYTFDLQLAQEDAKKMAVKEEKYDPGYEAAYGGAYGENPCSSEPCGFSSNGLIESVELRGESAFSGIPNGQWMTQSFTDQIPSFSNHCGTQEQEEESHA
Chain of N-glycosylase/DNA lyase (Homo sapiens) (O15527 whole entry): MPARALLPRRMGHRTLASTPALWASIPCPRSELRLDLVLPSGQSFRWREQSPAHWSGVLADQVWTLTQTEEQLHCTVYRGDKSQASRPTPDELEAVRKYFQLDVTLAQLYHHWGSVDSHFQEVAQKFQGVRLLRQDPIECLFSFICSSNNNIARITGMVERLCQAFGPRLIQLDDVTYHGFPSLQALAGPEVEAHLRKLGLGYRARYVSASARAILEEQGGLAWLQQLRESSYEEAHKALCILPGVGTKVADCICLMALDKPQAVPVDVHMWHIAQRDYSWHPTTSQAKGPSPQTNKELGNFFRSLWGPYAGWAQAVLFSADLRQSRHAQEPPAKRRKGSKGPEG
Chain of Methyl-CpG-binding domain protein 4 (Homo sapiens) (O95243 whole entry, the tested form may be a part): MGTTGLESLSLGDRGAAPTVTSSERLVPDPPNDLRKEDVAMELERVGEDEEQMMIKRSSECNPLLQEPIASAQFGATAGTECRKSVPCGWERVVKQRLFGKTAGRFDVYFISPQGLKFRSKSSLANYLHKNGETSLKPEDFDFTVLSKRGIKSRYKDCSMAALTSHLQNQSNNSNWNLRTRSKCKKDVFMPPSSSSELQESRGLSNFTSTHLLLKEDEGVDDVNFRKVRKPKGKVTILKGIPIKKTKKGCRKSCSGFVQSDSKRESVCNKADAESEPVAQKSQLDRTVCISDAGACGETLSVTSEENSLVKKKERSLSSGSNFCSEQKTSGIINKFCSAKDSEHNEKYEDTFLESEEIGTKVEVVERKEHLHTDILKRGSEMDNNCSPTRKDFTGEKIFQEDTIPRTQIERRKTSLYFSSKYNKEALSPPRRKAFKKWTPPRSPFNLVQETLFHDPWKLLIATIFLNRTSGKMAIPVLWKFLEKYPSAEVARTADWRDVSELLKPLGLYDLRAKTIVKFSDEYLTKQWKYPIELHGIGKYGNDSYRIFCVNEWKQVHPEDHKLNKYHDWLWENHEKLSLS

inhibition ([1]; Compound Concentration 10.0 uM) [%]	inhibition ([2]; Compound Concentration 10.0 uM) [%]	inhibition ([3]; Compound Concentration 10.0 uM) [%]	inhibition ([4]; Compound Concentration 10.0 uM) [%]	inhibition ([5]; Compound Concentration 10.0 uM) [%]	inhibition ([6]; Compound Concentration 10.0 uM) [%]	inhibition ([7]; Compound Concentration 10.0 uM) [%]	inhibition ([8]; Compound Concentration 10.0 uM) [%]	inhibition ([1]; Compound Concentration 1.0 uM) [%]	inhibition ([2]; Compound Concentration 1.0 uM) [%]	inhibition ([3]; Compound Concentration 1.0 uM) [%]	inhibition ([4]; Compound Concentration 1.0 uM) [%]	inhibition ([5]; Compound Concentration 1.0 uM) [%]	inhibition ([6]; Compound Concentration 1.0 uM) [%]	inhibition ([7]; Compound Concentration 1.0 uM) [%]	inhibition ([8]; Compound Concentration 1.0 uM) [%]	SMILES
-1.74	5.63	77.6	-4	-3.92	-6.71	48.6	-7.05									CO[C@@H](C)c1c(Nc2ccc([C@H](N(C)C(=O)C3CCS(=O)(=O)CC3)C(F)(F)F)cc2)cnc2cc(Cl)nn12
5.42	-7.38	62.8	20.2	-7.86	6.62	53.6	17.9									Cc1nc(-c2ccc(C(F)(F)F)cc2)sc1C(=O)NCc1ccc(OC(C)(C)C(=O)O)cc1
3.89	-0.744	58.8	3.38	5.94	0.114	47.6	16.4									CC(=O)N1CCC(c2ccc(C(=O)NC(=N)N)cc2C(F)(F)F)CC1
-3.11	2.32	58.8	5.59	1.34	-4.2	99	23.9									O=C(O)CCCc1cc2cc(Cl)ccc2n1S(=O)(=O)c1ccc2ncsc2c1
								-2.04	-9.93	58.9	2.93	2	7.33	51.4	17	O=C(O)[C@H]1[C@H](Cn2nnc3ccccc3c2=O)CC[C@@H]1C(=O)c1ccc(OCCC2CCOCC2)cc1
0.459	1.55	58	3.38	-7.86	-9.5	40.6	18.2									COC(=O)c1sccc1S(=O)(=O)Nc1ccc(Nc2ccccc2)cc1OC
7.11	-1.76	63.5	5	-0.63	-6.82	45.8	21.1									O=C(c1ccc2c(ccn2-c2ccc(F)cc2)c1)N1CC(N2CCN(C(=O)c3nccs3)CC2)C1
10.2	-7.63	64.6	10.5	-1.29	5.36	48.5	22.3									COc1nc2ccc([C@@](O)(c3ccccc3)C3CCN(C(C)=O)CC3)cc2c(Cl)c1Cc1ccc(-n2cccn2)cc1
-1.49	-4.57	55.4	16.5	7.92	-8.96	97.5	16.2									CCOC(=O)N1CCC(CN(Cc2ccc(Cl)cc2)Cc2ccc([N+](=O)[O-])s2)C1 (centres undefined)
5.34	-3.04	55.2	7.16	9.89	7.16	58.4	26.5									CC(C)C(=O)N1CCC(c2cn(C)c3ncc(NC(=O)c4cccc(C#N)c4)c(C(F)(F)F)c23)CC1
								6.67	-1.11	20.6	4.23	10.6	9.35	61.6	24.1	C[C@@H]1CCN(C(=O)CC#N)C[C@@H]1N(C)c1ncnc2[nH]ccc12
3.54	-9.42	58.2	48.4	-0.63	3.94	45.8	12.1									Cc1cc(OC2CCS(=O)(=O)CC2)cc(C)c1-c1cccc(COc2ccc(CCC(=O)O)c(F)c2)c1
								6.15	4.61	59.3	18.5	0.685	-4.64	56.1	24.9	O=C(Nc1ccc(-n2nc(-c3cccnc3)cc2C(F)(F)F)cn1)c1ccc(-c2ccccc2)c(F)c1
2.54	-5.85	72.7	7.36	-4.57	5.03	20.6	17.9									CCn1c(=O)c(C)cn(Cc2nnc(-c3ccc(F)c(OC)c3F)s2)c1=O
-6.06	-8.14	51.2	-0.262	0.685	-1.09	97.5	15.9									CCS(=O)(=O)c1cc2cc(C[C@](O)(CC(C)(C)c3ccc(F)cc3C(N)=O)C(F)(F)F)[nH]c2cn1
2.17	-10	-7.86	9.82	-0.61	-2.6	49.6	21.4									COc1cc(F)ccc1-c1ncnc(Nc2cccc(C[S@](C)(=N)=O)c2)n1
								8.33	-0.572	2.33	10.1	-5.49	-2.18	70.6	29.1	CN(C)C(=O)/C(C#N)=C/c1ccc(-c2nc3cnc4[nH]ccc4c3n2C2CCCCC2)o1
2.56	-7.12	-6.81	18.8	-6.55		15.4	11.1	3.16		-6.71		-0.61	-8.55	41	20	CN1CCN(C(=O)C(C)(C)c2ccc(C(=O)Nc3cn4cc(-c5cc(C(C)(C)C)cc(C(C)(C)C)c5)ccc4n3)cc2)CC1
-0.0445	6.91	57	-3.66	13.2	6.4	48.7	11.2									CC(=O)N1CCC(c2ccc(C(=O)NC3=NCCN3)cc2C(F)(F)F)CC1
-2.41	-9.67	55.6	1.66	-9.83	1.64	56.4	9.87									O=C(N1CCS(=O)(=O)CC1)N1C[C@H](c2ccc(OC(F)(F)F)cc2)C[C@H](c2nc(C3CC3)no2)C1
-2.07	-6.61	64.2	22.5	-5.89	11.1	50.9	0.186									O=S(=O)(c1ccccc1)N(CC(F)(F)F)c1ccc(C(O)(C(F)(F)F)C(F)(F)F)cc1

SMILES	inhibition ([1]; Compound Concentration 10.0 uM) [%]	inhibition ([2]; Compound Concentration 10.0 uM) [%]	inhibition ([3]; Compound Concentration 10.0 uM) [%]	inhibition ([4]; Compound Concentration 10.0 uM) [%]	inhibition ([5]; Compound Concentration 10.0 uM) [%]	inhibition ([6]; Compound Concentration 10.0 uM) [%]	inhibition ([7]; Compound Concentration 10.0 uM) [%]	inhibition ([8]; Compound Concentration 10.0 uM) [%]	inhibition ([1]; Compound Concentration 1.0 uM) [%]	inhibition ([2]; Compound Concentration 1.0 uM) [%]	inhibition ([3]; Compound Concentration 1.0 uM) [%]	inhibition ([4]; Compound Concentration 1.0 uM) [%]	inhibition ([5]; Compound Concentration 1.0 uM) [%]	inhibition ([6]; Compound Concentration 1.0 uM) [%]	inhibition ([7]; Compound Concentration 1.0 uM) [%]	inhibition ([8]; Compound Concentration 1.0 uM) [%]
Cn1cncc1[C@](O)(COc1ccc(C#N)cc1-c1ccc(OC(F)(F)F)cc1)c1ccc(C#N)cc1	-1.26	0.531	62	7.95	10.6	-9.34	37.9	-2.99								
COc1nc2ccc([C@@](O)(c3ccc(Cl)cc3)c3cncn3C)cc2c(Cl)c1Cc1ccc(-n2cccn2)cc1	9.26	-3.55	64.5	14.3	-3.26	6.4	42.9	16.6								
